Reference: patent publication EP0429372A1, “2-Azolyl nicotinate derivatives as herbicides” (RHONE-POULENC AGROCHIMIE, priority 1989, dated 1991)

Columns and labels:
Assay type in all cases: in vivo
Zea mays = assay: Example C: selectivity test in major crops, post-emergence application; conditions: crop (Maïs), 24 days, score 0-5, 0 or 1 = selective; also: ranges in brackets are in %
Description: (§1) Dans des pots de 7 x 7 x 8 cm remplis de terre agricole légère, on sème un nombre de graines déterminé en fonction de l'espèce végétale et de la grosseur de la graine.
(§2) On recouvre ensuite les graines d'une couche de terre d'environ 3 mm d'épaisseur et on laisse germer la graine jusqu'à ce qu'elle donne naissance à une plantule au stade convenable. Le stade de traitement pour les graminées est le stade "deuxième feuille en formation". Le stade de traitement pour les dicotylédones, est le stade "cotylédons étalés, première feuille vraie en développement".
(§3) Les pots sont alors traités par pulvérisation de bouillie en quantité correspondant à une dose volumique d'application de 500 l/ha et contenant la matière active à la concentration désirée.
(§4) La bouillie a été préparée de la même manière qu'à l'exemple A.
(§5) Les pots traités sont ensuite placés dans des bacs destinés à recevoir l'eau d'arrosage, en subirrigation, et maintenus pendant 24 jours à température ambiante sous 70 % d'humidité relative.
(§6) Au bout de 24 jours, on mesure un pourcentage (D) de destruction du nombre de pieds dans le pot traité par rapport au nombre de plantes dans les pots non traités (témoin). On mesure, sur les plantes traitées restantes, le pourcentage de réduction de taille (RT) par rapport aux plantes témoin.
(§7) Le pourcentage de volume foliaire non détruit par le produit est donc donné par la formule : [formula]
(§8) Cette valeur A est transformée en notation de 0 à 5 selon l'échelle suivante :
(§9) Ainsi, un produit est jugé comme sélectif vis à vis de la culture lorsque la valeur A notée est de 0 ou 1.
(§10) Les résultats obtenus sont présentés dans l'exemple C pour des doses d'application comprises entre 0,5 et 4 kg de matière active par hectare selon les produits.

Oryza sativa = assay: as above; conditions: crop (Riz), 24 days, score 0-5, 0 or 1 = selective; also: ranges in brackets are in %
Description: as §1, §2, §3, §4, §5, §6, §7, §8, §9, §10

Ipomea pupurea = assay: as above; conditions: 576 h
Description: as §1, §2, §3, §4, §5, §6, §7, §8, §9, §10

Solanum nigrum = assay: as above; conditions: 576 h
Description: as §1, §2, §3, §4, §5, §6, §7, §8, §9, §10

Sesbania exaltata = assay: as above; conditions: 576 h
Description: as §1, §2, §3, §4, §5, §6, §7, §8, §9, §10

Sinapis alba = assay: as above; conditions: 4000 g/ha, 576 h
Description: as §1, §2, §3, §4, §5, §6, §7, §8, §9, §10

Xanthium pennsylvanicum = assay: as above; conditions: 576 h
Description: as §1, §2, §3, §4, §5, §6, §7, §8, §9, §10

Triticum aestivum = assay: as above; conditions: crop (Blé), 24 days, score 0-5, 0 or 1 = selective; also: ranges in brackets are in %
Description: as §1, §2, §3, §4, §5, §6, §7, §8, §9, §10

mauvaises herbes [1] = assay: Procedure 2 d): weed control, pre-emergence; conditions: 4000 g/ha (procédé 2D), visual rating 20 to 24 days after spraying, vs control pots
Description: (§11) Des quantités appropriées des composés d'essai ont été dissoutes dans de l'acétone pour obtenir des solutions équivalant à des taux d'application de 250, 1000 ou 4000 g de composé d'essai par hectare (g/ha).
Les graines ont été semées dans des pots en matière plastique de 70 mm de côté et 75 mm de profondeur, dans de la terre non stérile provenant de Boarded Barns Farm ou un type de terre similaire provenant d'une source convenable. Les quantités de graines par pot étaient les suivantes :
Les composés de la présente invention ont été appliqués à la surface du sol, contenant les semences, de la manière décrite dans le paragraphe (a). Un seul pot de chaque plante cultivée et de chaque mauvaise herbe a été attribué à chaque traitement, en association avec des témoins n'ayant pas subi de pulvérisation et des témoins ayant subi une pulvérisation avec de l'acétone seule. Après traitement, les pots ont été maintenus dans une serre et ont été arrosés par aspersion pendant 3 jours, puis par une sous- irrigation controlée. L'évaluation visuelle des dégats infligés aux plantes cultivées a été effectuée 20 à 24 jours après pulvérisation. Les résultats ont été exprimés en pourcentage de réduction de croissance ou d'endommagement des plantes cultivées ou des mauvaises herbes, comparativement aux plantes présentes dans les pots témoins.

mauvaises herbes [2] = conditions: post-emergence, 4000 g/ha
Description: as §11
Les mauvaises herbes et les plantes cultivées ont été semées directement dans du compost de mise en pot John Innes dans des pots de 75 mm de profondeur et 70 mm de côté, sauf en ce qui concerne l'espèce du genre Amaranthus qui a été repiquée au stade de jeunes plants de semis et transférée dans les pots une semaine avant plulvérisation. Puis les plantes ont été cultivées dans la serre jusqu'à ce qu'elles soient prêtres à subir une pulvérisation avec les composés d'essai. Le nombre de plantes par pot étaient les suivants :
Les composés d'essai ont été appliqués aux plantes de la manière décrite dans le paragraphe (a). Un seul pot de chaque espèce de plante cultivée et de chaque espèce de mauvaise herbe a été attribué à chaque traitement, en association avec des témoins n'ayant pas subi de pulvérisation et des témoins ayant subi une pulvérisation avec de l'acétone seule.
Après traitement, les pots ont été maintenus dans une serre et ont été arrosés une fois par aspersion au bout de 24 heures, puis par sous - irrigation contrôlée. L'évaluation visuelle des dégâts infligés aux plantes cultivées et de la destruction des mauvaises herbes a été effectué 20 à 24 jours après pulvérisation. Les résultats ont été exprimés en pourcentage de réduction de croissance ou d'endommagement des plantes cultivées ou des mauvaises herbes, comparativement aux plantes présentes dans les pots témoins.

Viola tricolor = assay: Example C: selectivity test in major crops, post-emergence application; conditions: 2000 g/ha, 576 h
Description: as §1, §2, §3, §4, §5, §6, §7, §8, §9, §10

Convolvulus arvensis = conditions: post-emergence, 2000 g/ha, 576 h
Description: as §1, §2, §3, §4, §5, §6, §7, §8, §9, §10

Polygonum convolvulus = conditions: 2000 g/ha, 576 h
Description: as §1, §2, §3, §4, §5, §6, §7, §8, §9, §10

Chrysanthemum segetum = conditions: post-emergence, 2000 g/ha, 576 h
Description: as §1, §2, §3, §4, §5, §6, §7, §8, §9, §10

SMILES: CCOC(=O)c1cccnc1-c1nc(-c2ccccc2)nn1S(=O)(=O)N(C)C [compound 19]
- ACTIVITE HERBICIDE DE POST LEVEE Z E A (Zea mays; dose 4 kg/ha): 0 (90 à 100)
- ACTIVITE HERBICIDE DE POST LEVEE O R Y (Oryza sativa; dose 4 kg/ha): 0 (90 à 100)
- ACTIVITE HERBICIDE DE POST LEVEE I P O (Ipomea pupurea; 4000 g/ha): 4 (10 à 30)
- ACTIVITE HERBICIDE DE POST LEVEE S O L (Solanum nigrum; 4000 g/ha): 5 (O à 10)
- ACTIVITE HERBICIDE DE POST LEVEE S E S (Sesbania exaltata; 4000 g/ha): 5 (O à 10)
- ACTIVITE HERBICIDE DE POST LEVEE S I N (Sinapis alba): 5 (O à 10)
- ACTIVITE HERBICIDE DE POST LEVEE X A N (Xanthium pennsylvanicum; 4000 g/ha): 2 (50 à 70)
- ACTIVITE HERBICIDE DE POST LEVEE T R Z (Triticum aestivum; dose 4 kg/ha): 0 (90 à 100)

SMILES: COc1cccc2c1nc(-c1ncccc1C(=O)O)n2S(=O)(=O)N(C)C [compound 90]
- réduction de la croissance d'une ou plusieurs des espèces de mauvaises herbes (mauvaises herbes [1]): ≥ 90%
- destruction d'une ou plusieurs des espèces de mauvaises herbes (mauvaises herbes [2]): ≥ 90%

SMILES: CN(C)S(=O)(=O)n1c(-c2ncccc2C(=O)O)nc2c(Cl)cccc21 [compound 79]
- ACTIVITE HERBICIDE DE POST LEVEE Z E A (Zea mays; dose 2 kg/ha): 0 (90 à 100)
- ACTIVITE HERBICIDE DE POST LEVEE O R Y (Oryza sativa; dose 2 kg/ha): 0 (90 à 100)
- ACTIVITE HERBICIDE DE POST LEVEE I P O (Ipomea pupurea; 2000 g/ha): 4 (10 à 30)
- ACTIVITE HERBICIDE DE POST LEVEE S O L (Solanum nigrum; 2000 g/ha): 3 (30 à 50)
- ACTIVITE HERBICIDE DE POST LEVEE V I O (Viola tricolor): 1 (70 à 90)
- ACTIVITE HERBICIDE DE POST LEVEE S E S (Sesbania exaltata; 2000 g/ha): 2 (50 à 70)
- ACTIVITE HERBICIDE DE POST LEVEE X A N (Xanthium pennsylvanicum; 2000 g/ha): 1 (70 à 90)
- ACTIVITE HERBICIDE DE POST LEVEE T R Z (Triticum aestivum; dose 2 kg/ha): 0 (90 à 100)
- ACTIVITE HERBICIDE DE POST LEVEE C O N (Convolvulus arvensis): 4 (10 à 30)
- ACTIVITE HERBICIDE DE POST LEVEE P O L (Polygonum convolvulus): 3 (30 à 50)
- ACTIVITE HERBICIDE DE POST LEVEE C H Y (Chrysanthemum segetum): 4 (10 à 30)

SMILES: Cc1ccc(C(=O)O)c(-c2nc3ccccc3n2S(=O)(=O)N(C)C)n1 [compound 93]
- réduction de la croissance d'une ou plusieurs des espèces de mauvaises herbes (mauvaises herbes [1]): ≥ 90%
- destruction d'une ou plusieurs des espèces de mauvaises herbes (mauvaises herbes [2]): ≥ 90%

SMILES: CCCCCCOC(=O)c1cccnc1-c1nc2ccccc2n1S(=O)(=O)N(C)C [compound 103]
- réduction de la croissance d'une ou plusieurs des espèces de mauvaises herbes (mauvaises herbes [1]): ≥ 90%
- destruction d'une ou plusieurs des espèces de mauvaises herbes (mauvaises herbes [2]): ≥ 90%
